Measured values reported in ChEMBL document CHEMBL3885861, “Open TG-GATES”.

Organism: Rattus norvegicus
Assay: Open TG-GATES - Regimen: Daily Repeat
Format: toxicity, organism-based, Sprague-Dawley
Set-up: regimen Daily Repeat, gender Male, age 6 weeks
Conditions: in vivo, po, 50 mg/kg, route gavage, dose level Middle; for APTT / Bas / Eos / Fbg / Hb / Ht / Lym / MCH / MCHC / MCV / Mono / Neu / PT / Plat / RBC / Ret / WBC: tissue Blood; for KIDNEY_L / KIDNEY_R / KIDNEY_TOTAL: tissue Kidney; for LIVER: tissue Liver; for A/G / ALP / ALT / AST / BUN / CRE / Ca / Cl / DBIL / GLC / IP / K / LDH / Na / PL / RALB / TBIL / TC / TG / TP / gamma-GTP: tissue Plasma

For `O=c1ccc2ccccc2o1` [COUMARIN], the TERMINAL_BW (72 h, time 3 day) was 194.4 g, the APTT (72 h, time 3 day) was 14.9 s and the Bas (72 h, time 3 day) was 0%. For the same molecule, the Eos (72 h, time 3 day) was 1.2%, the Fbg (72 h, time 3 day) was 201.2 mg/dL and the Hb (72 h, time 3 day) was 13.2 g/dL. The Ht (72 h, time 3 day) was 40.2%, the Lym (72 h, time 3 day) was 71.6% and the MCH (72 h, time 3 day) was 21.3 pg. For the same molecule, the MCHC (72 h, time 3 day) was 33%, the MCV (72 h, time 3 day) was 64.5 fL and the Mono (72 h, time 3 day) was 6.2%. It also gave a Neu (72 h, time 3 day) of 21%, a PT (72 h, time 3 day) of 11.4 s and a Plat (72 h, time 3 day) of 114.2 x10_4/uL. For the same molecule, the RBC (72 h, time 3 day) was 623.4 x10_4/ul, the Ret (72 h, time 3 day) was 7.4% and the WBC (72 h, time 3 day) was 101.6 x10_2/uL. The KIDNEY_L (72 h, time 3 day) was 0.9 g, the KIDNEY_R (72 h, time 3 day) was 0.9 g and the KIDNEY_TOTAL (72 h, time 3 day) was 1.8 g. It also gave an LIVER (72 h, time 3 day) of 10 g, an A/G (72 h, time 3 day) of 1.9 and an ALP (72 h, time 3 day) of 1143 IU/L. It also gave an ALT (72 h, time 3 day) of 43.8 IU/L, an AST (72 h, time 3 day) of 65.4 IU/L and a BUN (72 h, time 3 day) of 14.2 mg/dL. The CRE (72 h, time 3 day) was 0.5 mg/dL, the Ca (72 h, time 3 day) was 10.9 mg/dL and the Cl (72 h, time 3 day) was 106 meq/L. It also gave a DBIL (72 h, time 3 day) of 0.03 mg/dL, a GLC (72 h, time 3 day) of 182.4 mg/dL and an IP (72 h, time 3 day) of 7.6 mg/dL. For the same molecule, the K (72 h, time 3 day) was 5.2 meq/L, the LDH (72 h, time 3 day) was 94 IU/L and the Na (72 h, time 3 day) was 139.4 meq/L. It also gave a PL (72 h, time 3 day) of 150.6 mg/dL, an RALB (72 h, time 3 day) of 3.7 g/dL and a TBIL (72 h, time 3 day) of 0.3 mg/dL. For the same molecule, the TC (72 h, time 3 day) was 95.4 mg/dL, the TG (72 h, time 3 day) was 37 mg/dL and the TP (72 h, time 3 day) was 5.7 g/dL. For the same molecule, the gamma-GTP (72 h, time 3 day) was 1.2 IU/L, the TERMINAL_BW ([…], time 7 day) was 221.4 g and the TERMINAL_BW ([…], time 14 day) was 270.1 g. The TERMINAL_BW ([…], time 28 day) was 361.7 g, the APTT ([…], time 7 day) was 16.9 s and the Bas ([…], time 7 day) was 0%. It also gave an Eos ([…], time 7 day) of 1%, a Fbg ([…], time 7 day) of 218 mg/dL and a Hb ([…], time 7 day) of 13.4 g/dL. The Ht ([…], time 7 day) was 39.9%, the Lym ([…], time 7 day) was 82.8% and the MCH ([…], time 7 day) was 21.3 pg. It also gave an MCHC ([…], time 7 day) of 33.4%, an MCV ([…], time 7 day) of 63.9 fL and a Mono ([…], time 7 day) of 3.2%. The Neu ([…], time 7 day) was 13.4%, the PT ([…], time 7 day) was 11.3 s and the Plat ([…], time 7 day) was 120.8 x10_4/uL. The RBC ([…], time 7 day) was 625 x10_4/ul, the Ret ([…], time 7 day) was 6.2% and the WBC ([…], time 7 day) was 135.8 x10_2/uL. It also gave an APTT ([…], time 14 day) of 17.5 s, a Bas ([…], time 14 day) of 0% and an Eos ([…], time 14 day) of 0.6%. For the same molecule, the Fbg ([…], time 14 day) was 249 mg/dL, the Hb ([…], time 14 day) was 13.8 g/dL and the Ht ([…], time 14 day) was 41.7%. It also gave a Lym ([…], time 14 day) of 87%, an MCH ([…], time 14 day) of 20.1 pg and an MCHC ([…], time 14 day) of 33.2%. For the same molecule, the MCV ([…], time 14 day) was 60.5 fL, the Mono ([…], time 14 day) was 3.8% and the Neu ([…], time 14 day) was 8.8%. The PT ([…], time 14 day) was 11.3 s, the Plat ([…], time 14 day) was 120.6 x10_4/uL and the RBC ([…], time 14 day) was 689.8 x10_4/ul. The Ret ([…], time 14 day) was 4.8%, the WBC ([…], time 14 day) was 163.9 x10_2/uL and the APTT ([…], time 28 day) was 19 s. The Bas ([…], time 28 day) was 0%, the Eos ([…], time 28 day) was 1% and the Fbg ([…], time 28 day) was 239.2 mg/dL. It also gave a Hb ([…], time 28 day) of 14.2 g/dL, a Ht ([…], time 28 day) of 42.4% and a Lym ([…], time 28 day) of 81%. For the same molecule, the MCH ([…], time 28 day) was 19.1 pg, the MCHC ([…], time 28 day) was 33.6% and the MCV ([…], time 28 day) was 56.8 fL. It also gave a Mono ([…], time 28 day) of 4.2%, a Neu ([…], time 28 day) of 14.2% and a PT ([…], time 28 day) of 11.6 s. The Plat ([…], time 28 day) was 109.4 x10_4/uL, the RBC ([…], time 28 day) was 745.8 x10_4/ul and the Ret ([…], time 28 day) was 3.1%. It also gave a WBC ([…], time 28 day) of 125.8 x10_2/uL, a KIDNEY_L ([…], time 7 day) of 1 g and a KIDNEY_R ([…], time 7 day) of 1 g. It also gave a KIDNEY_TOTAL ([…], time 7 day) of 2.1 g, a KIDNEY_L ([…], time 14 day) of 1.2 g and a KIDNEY_R ([…], time 14 day) of 1.2 g. For the same molecule, the KIDNEY_TOTAL ([…], time 14 day) was 2.3 g, the KIDNEY_L ([…], time 28 day) was 1.4 g and the KIDNEY_R ([…], time 28 day) was 1.4 g. The KIDNEY_TOTAL ([…], time 28 day) was 2.7 g, the LIVER ([…], time 7 day) was 11.3 g and the LIVER ([…], time 14 day) was 14.8 g. For the same molecule, the LIVER ([…], time 28 day) was 19 g, the A/G ([…], time 7 day) was 2 and the ALP ([…], time 7 day) was 996 IU/L. For the same molecule, the ALT ([…], time 7 day) was 41 IU/L, the AST ([…], time 7 day) was 54.2 IU/L and the BUN ([…], time 7 day) was 15 mg/dL. For the same molecule, the CRE ([…], time 7 day) was 0.6 mg/dL, the Ca ([…], time 7 day) was 11 mg/dL and the Cl ([…], time 7 day) was 104.8 meq/L. For the same molecule, the DBIL ([…], time 7 day) was 0.04 mg/dL, the GLC ([…], time 7 day) was 193.6 mg/dL and the IP ([…], time 7 day) was 7.7 mg/dL. It also gave a K ([…], time 7 day) of 5 meq/L, an LDH ([…], time 7 day) of 98.8 IU/L and a Na ([…], time 7 day) of 139 meq/L. For the same molecule, the PL ([…], time 7 day) was 164.6 mg/dL, the RALB ([…], time 7 day) was 3.9 g/dL and the TBIL ([…], time 7 day) was 0.3 mg/dL. It also gave a TC ([…], time 7 day) of 99.6 mg/dL, a TG ([…], time 7 day) of 36 mg/dL and a TP ([…], time 7 day) of 5.9 g/dL. For the same molecule, the gamma-GTP ([…], time 7 day) was 1 IU/L, the A/G ([…], time 14 day) was 2 and the ALP ([…], time 14 day) was 739.4 IU/L. It also gave an ALT ([…], time 14 day) of 34 IU/L, an AST ([…], time 14 day) of 53.8 IU/L and a BUN ([…], time 14 day) of 19.6 mg/dL. The CRE ([…], time 14 day) was 0.5 mg/dL, the Ca ([…], time 14 day) was 11.1 mg/dL and the Cl ([…], time 14 day) was 105.4 meq/L. For the same molecule, the DBIL ([…], time 14 day) was 0.068 mg/dL, the GLC ([…], time 14 day) was 194 mg/dL and the IP ([…], time 14 day) was 6.8 mg/dL. The K ([…], time 14 day) was 4.8 meq/L, the LDH ([…], time 14 day) was 81.2 IU/L and the Na ([…], time 14 day) was 138.6 meq/L. For the same molecule, the PL ([…], time 14 day) was 212.4 mg/dL, the RALB ([…], time 14 day) was 4.2 g/dL and the TBIL ([…], time 14 day) was 0.3 mg/dL. It also gave a TC ([…], time 14 day) of 115.8 mg/dL, a TG ([…], time 14 day) of 88.4 mg/dL and a TP ([…], time 14 day) of 6.4 g/dL. The gamma-GTP ([…], time 14 day) was 1 IU/L, the A/G ([…], time 28 day) was 1.7 and the ALP ([…], time 28 day) was 603 IU/L. For the same molecule, the ALT ([…], time 28 day) was 41.8 IU/L, the AST ([…], time 28 day) was 52 IU/L and the BUN ([…], time 28 day) was 21 mg/dL. It also gave a CRE ([…], time 28 day) of 0.6 mg/dL, a Ca ([…], time 28 day) of 11 mg/dL and a Cl ([…], time 28 day) of 105.2 meq/L. The DBIL ([…], time 28 day) was 0.022 mg/dL, the GLC ([…], time 28 day) was 183.4 mg/dL and the IP ([…], time 28 day) was 6.4 mg/dL. The K ([…], time 28 day) was 4.4 meq/L, the LDH ([…], time 28 day) was 66.2 IU/L and the Na ([…], time 28 day) was 139.4 meq/L. For the same molecule, the PL ([…], time 28 day) was 195.6 mg/dL, the RALB ([…], time 28 day) was 4.3 g/dL and the TBIL ([…], time 28 day) was 0.3 mg/dL. For the same molecule, the TC ([…], time 28 day) was 99.2 mg/dL, the TG ([…], time 28 day) was 104 mg/dL and the TP ([…], time 28 day) was 6.9 g/dL. It also gave a gamma-GTP ([…], time 28 day) of 1.6 IU/L.
